Laboratory results: patent publication US9556150B2, “Inhibitors of bruton's tyrosine kinase” (Hoffmann-La Roche Inc., priority 2013, dated 2017)
Where a name gives a salt, the structure may show the parent alone.

Target: Bruton's Tyrosine Kinase (BTK), inactivated state (Homo sapiens (Human), UniProt Q06187)
Assay: Bruton's Tyrosine Kinase (BTK) Inhibition TR-FRET (Time Resolved FRET) competition assay
Format: binding
Details: TR-FRET competition with Kinase Tracer 178, BTK-Eu complex, 18-24 h at 14° C.
Experimental: Bruton's Tyrosine Kinase (BTK) Inhibition TR-FRET (Time Resolved FRET) Assay
This BTK competition assay measures compound potency (IC50) for the inactivated state of Bruton's Tyrosine Kinase using FRET (Förster/Fluorescence Resonance Energy Transfer) technology. The BTK-Eu complex was incubated on ice one hour prior to use at a starting concentration of 50 nM BTK-Bioease™: 10 nM Eu-streptavidin (Perkin-Elmer Catalog#AD0062). The assay buffer consisted of 20 mM HEPES (pH 7.15), 0.1 mM DTT, 10 mM MgCl2, 0.5 mg/ml BSA with 3% Kinase Stabilizer (Fremont Biosolutions, Catalog #STB-K02). After 1 h, the reaction mixture from above was diluted 10 fold in assay buffer to make 5 nM BTK: 1 nM Eu-Streptavidin complex (donor fluorophore). 18 μl of a mixture of 0.11 nM BTK-Eu and 0.11 nM Kinase Tracer 178 (Invitrogen, Catalog #PV5593,) with BTK-Eu alone as no negative control, was then dispensed into 384-well flat bottom plates (Greiner, 784076). Compounds to be tested in assay were prepared as 10× concentrations and serial dilution in half-log increments was performed in DMSO so as to generate 10 point curves. To initiate the FRET reaction, compounds prepared as 10× stock in DMSO was added to the plates and the plates were incubated 18-24 h at 14° C.
After the incubation the plates were read on a BMG Pherastar Fluorescent plate reader (or equivalent) and used to measure the emission energy from the europium donor fluorophore (620 nm emission) and the FRET (665 nm emission). The negative control well values were averaged to obtain the mean minimum. The positive “no inhibitor” control wells were averaged to obtain the mean maximum. Percent of maximal FRET was calculated using following equation: % max FRET=100×[(FSR cmpd−FSR mean min)/(FSR mean max−FSR mean min)]
where FSR=FRET Signal ratio. % Max FRET curves were plotted in Activity Base (Excel) and the IC50(%), hill slope, z′ and % CV were determined. The mean IC50 and standard deviation will be derived from duplicate curves (singlet inhibition curves from two independent dilutions) using Microsoft Excel.
Representative compound data for this assay are listed below in Table II.

Chain of Bruton's Tyrosine Kinase (BTK), inactivated state (Q06187 whole entry): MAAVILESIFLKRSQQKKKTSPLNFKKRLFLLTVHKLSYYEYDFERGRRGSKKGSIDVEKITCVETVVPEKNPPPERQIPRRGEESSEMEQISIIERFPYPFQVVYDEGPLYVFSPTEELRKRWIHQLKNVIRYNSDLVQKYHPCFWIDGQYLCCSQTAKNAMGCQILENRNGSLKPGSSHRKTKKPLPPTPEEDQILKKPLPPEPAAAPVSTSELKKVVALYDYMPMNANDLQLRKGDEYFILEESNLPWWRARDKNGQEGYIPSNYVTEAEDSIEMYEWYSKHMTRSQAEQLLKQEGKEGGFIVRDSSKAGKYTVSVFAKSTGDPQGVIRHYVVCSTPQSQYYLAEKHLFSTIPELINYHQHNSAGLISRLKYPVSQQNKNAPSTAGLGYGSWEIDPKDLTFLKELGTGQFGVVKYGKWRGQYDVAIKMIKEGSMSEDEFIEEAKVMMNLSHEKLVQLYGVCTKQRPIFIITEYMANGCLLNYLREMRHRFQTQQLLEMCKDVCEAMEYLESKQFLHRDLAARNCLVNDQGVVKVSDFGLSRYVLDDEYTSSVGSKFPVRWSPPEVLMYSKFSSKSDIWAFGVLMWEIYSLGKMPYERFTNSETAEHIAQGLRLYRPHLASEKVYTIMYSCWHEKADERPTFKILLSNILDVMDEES

Row | IC50 [nM] | Structure (SMILES)
1 | 32 | CN1CCN(C(=O)c2ccc3[nH]c(C(=O)c4cnn(-c5ccc(Oc6cccc(C(=O)N(C)C)c6)cc5Cl)c4N)cc3c2)CC1 [Example I-47, 3-(4-{5-Amino-4-[5-(4-methyl-piperazine-1-carbonyl)-1H-indole-2-carbonyl]-pyrazol-1-yl}-3-chloro-phenoxy)-N,N-dimethyl-benzamide]
2 | 3.2 | N#Cc1cccc(Oc2ccc(-n3ncc(C(=O)c4cc5cc(C(=O)O)ccc5[nH]4)c3N)c(Cl)c2)c1F [Example I-48, 2-{5-Amino-1-[2-chloro-4-(3-cyano-2-fluoro-phenoxy)-phenyl]-1H-pyrazole-4-carbonyl}-1H-indole-5-carboxylic acid]
3 | 1.4 | CN(C)CCNC(=O)c1ccc2[nH]c(C(=O)c3cnn(-c4ccc(Oc5ccccc5C(=O)N(C)C)cc4Cl)c3N)cc2c1 [Example I-49, 2-{5-Amino-1-[2-chloro-4-(2-dimethylcarbamoyl-phenoxy)-phenyl]-1H-pyrazole-4-carbonyl}-1H-indole-5-carboxylic acid (2-dimethylamino-ethyl)-amide]
4 | 2.5 | CN(C)C(=O)c1ccccc1Oc1ccc(-n2ncc(C(=O)c3cc4cc(C(=O)N5CCC(N(C)C)C5)ccc4[nH]3)c2N)c(Cl)c1 (stereo not drawn) [Example I-50, 2-(4-{5-Amino-4-[5-(3-dimethylamino-pyrrolidine-1-carbonyl)-1H-indole-2-carbonyl]-pyrazol-1yl}-3-chloro-phenoxy)-N,N-dimethyl-benzamide]
5 | 1.1 | CN(C)C(=O)c1ccccc1Oc1ccc(-n2ncc(C(=O)c3cc4cc(C(=O)N5CCNCC5)ccc4[nH]3)c2N)c(Cl)c1 [Example I-51, 2-(4-{5-Amino-4-[5-(piperazine-1-carbonyl)-1H-indole-2-carbonyl]-pyrazol-1-yl}-3-chloro-phenoxy)-N,N-dimethyl-benzamide acetic acid salt]
6 | 17 | CN(C)C(=O)c1ccccc1Oc1ccc(-n2ncc(C(=O)c3cc4cc(C(=O)N5CCC(N(C)C(=O)OC(C)(C)C)C5)ccc4[nH]3)c2N)c(Cl)c1 (stereo not drawn) [Example I-52, [1-(2-{5-Amino-1-[2-chloro-4-(2-dimethylcarbamoyl-phenoxy)-phenyl]-1Hpyrazole-4-carbonyl}-1H-indole-5-carbonyl)-pyrrolidin-3-yl]-methyl-carbamic acid tert-butyl ester]
7 | 1.7 | CNC1CCN(C(=O)c2ccc3[nH]c(C(=O)c4cnn(-c5ccc(Oc6ccccc6C(=O)N(C)C)cc5Cl)c4N)cc3c2)C1 (stereo not drawn) [Example I-53, acetic acid salt]
8 | 5.1 | CN(C)C(=O)c1ccccc1Oc1ccc(-n2ncc(C(=O)c3cc4cc(C(=O)NCCN(C)C(=O)OC(C)(C)C)ccc4[nH]3)c2N)c(Cl)c1 [Example I-55, {2-[(2-{5-Amino-1-[2-chloro-4-(2-dimethylcarbamoyl-phenoxy)-phenyl]-1H-pyrazole-4-carbonyl}-1H-indole-5-carbonyl)-amino]-ethyl}-methyl-carbamic acid tert-butyl ester]
9 | 3.1 | CNCCNC(=O)c1ccc2[nH]c(C(=O)c3cnn(-c4ccc(Oc5ccccc5C(=O)N(C)C)cc4Cl)c3N)cc2c1 [Example I-56, 2-{5-Amino-1-[2-chloro-4-(2-dimethylcarbamoyl-phenoxy)-phenyl]-1H-pyrazole-4-carbonyl}-1H-indole-5-carboxylic acid (2-methylamino-ethyl)-amideacetic acid salt]
10 | 3.3 | CN(C)C(=O)c1ccccc1Oc1ccc(-n2ncc(C(=O)c3cc4cc(C(=O)N5CCOCC5)ccc4[nH]3)c2N)c(Cl)c1 [Example I-57, 2-(4-{5-Amino-4-[5-(morpholine-4-carbonyl)-1H-indole-2-carbonyl]-pyrazol-1-yl}-3-chloro-phenoxy)-N,N-dimethyl-benzamide]
11 | 2.1 | CNC1CCN(C(=O)c2ccc3[nH]c(C(=O)c4cnn(-c5ccc(Oc6ccccc6C(=O)N(C)C)cc5Cl)c4N)cc3c2)CC1 [Example I-58, 2-(4-{5-Amino-4-[5-(4-methylamino-piperidine-1-carbonyl)-1H-indole-2-carbonyl]-pyrazol-1-yl}-3-chloro-phenoxy)-N,N-dimethyl-benzamide]
12 | 12 | CN(C)C(=O)c1ccccc1Oc1ccc(-n2ncc(C(=O)c3cc4cc(C(=O)O)ccc4[nH]3)c2N)c(Cl)c1 [Example I-59, 2-{5-Amino-1-[2-chloro-4-(2-dimethylcarbamoyl-phenoxy)-phenyl]-1H-pyrazole-4-carbonyl}-1H-indole-5-carboxylic acid]
